Results on two molecules are retold here after patent US12491271B2, “Positron emission tomography radiotracer for diseases associated with translocator protein overexpression, translocator protein-targeting ligand for fluorescence imaging-guided surgery and photodynamic therapy, and production methods therefor” (Seoul National University R&DB Foundation, priority 2018, dated 2025).

Molecules are shown by their SMILES.

The target of one series is TSPO (Homo sapiens, UniProt P30536). The following applies: compared with earlier tracer [11C]PK11195, background art; cited from earlier work.
TSPO, sequence (P30536 whole entry): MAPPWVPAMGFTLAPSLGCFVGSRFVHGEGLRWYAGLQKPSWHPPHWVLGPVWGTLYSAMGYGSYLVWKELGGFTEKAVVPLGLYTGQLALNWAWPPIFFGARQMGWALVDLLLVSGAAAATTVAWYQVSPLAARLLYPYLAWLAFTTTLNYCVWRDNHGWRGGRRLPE
Series [1] in a line: In vitro stability in human serum. In kind it is in vitro ADME. The following applies: human serum mixed with 1% ethanol/water, 37° C., for up to 120 minutes. The procedure:
In an experiment on the in vitro stability of the fluorine-18-labeled PET radiotracer ([^18F]BS224) for targeting translocator protein overexpression, 0.4 mL of human serum was mixed with 0.4 mL of 1% ethanol/water containing the fluorine-18-labeled radiotracer ([^18F]BS224), and then the solution was incubated at 37° C. for 0, 10, 30, 60 and 120 minutes and then analyzed by thin film chromatography.

A short description of series [2]: Measurement of lipophilicity (n-octanol / sodium phosphate buffer partition). In kind it is physicochemical. The following applies: n-octanol / sodium phosphate buffer 0.15 M, pH 7.4; measured five times; read-out: lipophilicity (ratio of counts per minute from n-octanol versus sodium phosphate buffer) (converted). The procedure: For the measurement of lipophilicity, [^18F]BS224 dispersed in 5% ethanol/saline was added to and mixed with n-octanol (5 mL) and sodium phosphate buffer (0.15 M, pH 7.4, 5.0 mL), and then lipophilicity was measured five times. Samples of each phase were counted for radioactivity, and the lipophilicity was expressed as the ratio of the counts per minute from n-octanol versus that of the sodium phosphate buffer. The lipophilicity of [^18F]BS224 was 2.78±0.4.

For `COc1ccc(OC)c(CN(C(C)=O)c2cc(F)ccc2Oc2ccccc2)c1` [[^11C]DAA1106], the higher uptake at TSPO is listed as 4 fold.

As for `CCCN(CCC)C(=O)Cc1c(-c2ccc([18F])cc2)nc2c(Cl)cc(Cl)cn12` [[^18F]BS224, 2-(6,8-dichloro-2-(4-[^18F]fluorophenyl)imidazo[1,2-a]pyridin-3-yl)-N, N-dipropylacetamide], the “stability of radiotracer in human serum (thin film chromatography)” value in series [1] is recorded as “at least 98.7%”. The logD in series [2] is 0.444.
